According to ChEMBL document CHEMBL1127637, “Antiplatelet agents based on cyclooxygenase inhibition without ulcerogenesis. Evaluation and synthesis of 4,5-bis(4-methoxyphenyl)-2-substituted-thiazoles” (J Med Chem, 1994):

What was measured:
Type in all cases: functional
Oryctolagus cuniculus [1] = species on record: Oryctolagus cuniculus; assay: In vitro antiplatelet activity against arachidonic acid induced malondialdehyde production
Rattus norvegicus [2] = species on record: Rattus norvegicus; assay: In vitro vasodilatory activity in isolated rat aorta; conditions: read-out: ED50 (the source's name)
Cavia porcellus [3] = assay: Inhibitory effect on platelet aggregation induced by Arachidonic acid (AA) in guinea pigs ex vivo at a dose of 1 mg/Kg after 1 hr of oral administration
Cavia porcellus [4] = assay: Inhibitory effect on platelet aggregation induced by Arachidonic acid (AA) in guinea pigs ex vivo at a dose of 3.2 mg/Kg after 1 hr of oral administration
Cavia porcellus [5] = assay: Inhibitory effect on platelet aggregation induced by Collagen in guinea pigs ex vivo at a dose of 1 mg/Kg after 6 hr of oral administration
Cavia porcellus [6] = assay: Inhibitory effect on platelet aggregation induced by Arachidonic acid (AA) in guinea pigs ex vivo at a dose of 1 mg/Kg after 6 hr of oral administration
Cavia porcellus [7] = assay: Inhibitory effect on platelet aggregation induced by Arachidonic acid (AA) in guinea pigs ex vivo at a dose of 3.2 mg/Kg after 6 hr of oral administration
Cavia porcellus [8] = assay: Inhibitory effect on platelet aggregation induced by Collagen in guinea pigs ex vivo at a dose of 3.2 mg/Kg after 6 hr of oral administration
Cavia porcellus [9] = assay: Inhibitory effect on platelet aggregation induced by Collagen in guinea pigs ex vivo at a dose of 3.2 mg/Kg after 1 hr of oral administration
Oryctolagus cuniculus [10] = species on record: Oryctolagus cuniculus; assay: Inhibitory activity on the MDA production at 0.01 uM
Oryctolagus cuniculus [11] = species on record: Oryctolagus cuniculus; assay: Inhibitory activity on the MDA production at 0.1 uM
Cavia porcellus [12] = assay: Inhibitory effect on platelet aggregation induced by Collagen in guinea pigs ex vivo at a dose of 1 mg/Kg after 1 hr of oral administration
Rattus norvegicus [13] = assay: Induction of acute stomach lesion at a dose of 100 mg/Kg was determined in 5 animals
Rattus norvegicus [14] = assay: Induction of acute stomach lesion at a dose of 32 mg/Kg was determined in 5 animals
Cavia porcellus [15] = assay: ccInhibitory effect on platelet aggregation induced by Arachidonic acid (AA) in guinea pigs ex vivo at a dose of 3.2 mg/Kg after 6 hr of oral administration
Oryctolagus cuniculus [16] = species on record: Oryctolagus cuniculus; assay: Inhibitory activity on the MDA production at 1 uM
Rattus norvegicus [17] = assay: Compound was evaluated for collagen-induced platelet aggregation in rat ex vivo at the dose of 32 mg/Kg
Rattus norvegicus [18] = assay: Induction of acute stomach lesion at a dose of 100 mg/Kg
Rattus norvegicus [19] = assay: Induction of acute stomach lesion at a dose of 320 mg/Kg
Rattus norvegicus [20] = assay: Induction of acute stomach lesion at a dose of 32 mg/Kg
Rattus norvegicus [21] = assay: Induction of acute stomach lesion at a dose of 10 mg/Kg
Cavia porcellus [22] = assay: Inhibitory effect on platelet aggregation induced by Arachidonic acid (AA) in guinea pigs ex vivo at a dose of 1 mg/kg after 6 hr of oral administration
Rattus norvegicus [23] = assay: Compound was evaluated for collagen-induced platelet aggregation ex vivo in rat at the dose of 100 mg/Kg
Cavia porcellus [24] = assay: Inhibitory effect on platelet aggregation induced by Arachidonic acid in guinea pigs ex vivo at a dose of 3.2 mg/Kg after 1 hr of oral administration
Cavia porcellus [25] = assay: Inhibitory effect on platelet aggregation induced by Arachidonic acid (AA) in guinea pigs ex vivo at a dose of 1 mg/kg after 1 hr of oral administration

IC50 (Oryctolagus cuniculus [1]) [nM] | EC50 (Rattus norvegicus [2]) [µM] | Structure (SMILES) | further results
31 | 2.5 | Cc1cc(/N=C(\Nc2nccs2)NC2CCCCC2)c2ccccc2n1 [TIMEGADINE] | Inhibition % (Cavia porcellus [3]): 14.5%; Inhibition % (Cavia porcellus [4]): 52.4%
> 1000 | 15 | COc1ccc(-c2nc(C(=O)N3CCN(C(=O)NC(C)C)CC3)sc2-c2ccc(OC)cc2)cc1 | –
> 100 | 7.7 | COc1ccc(-c2nc(CN)sc2-c2ccc(OC)cc2)cc1 | –
> 1000 | 11 | COc1ccc(-c2nc(C(=O)N3CCCCC3)sc2-c2ccc(OC)cc2)cc1 | –
55 | – | COc1ccc(-c2nc(CNC(=O)C3=NNC(=O)CC3)sc2-c2ccc(OC)cc2)cc1 | inhibition in vivo at 1 mg/kg (Cavia porcellus [5]): 84.3%; inhibition in vivo at 1 mg/kg (Cavia porcellus [6]): 100%; inhibition in vivo at 3.2 mg/kg (Cavia porcellus [7]): 100%; inhibition in vivo at 3.2 mg/kg (Cavia porcellus [8]): 94.1%
> 100 | 9.1 | COc1ccc(-c2nc(/N=C(\N)NC(C)C)sc2-c2ccc(OC)cc2)cc1 | –
< 100 | > 32 | CCOC(=O)C1=C(C)N=C(C)/C(=C(/O)OCC)C1c1nc(-c2ccc(OC)cc2)c(-c2ccc(OC)cc2)s1 (stereo unspecified) | –
96 | 8.4 | COc1ccc(-c2nc(CN(C)C)sc2-c2ccc(OC)cc2)cc1 | Inhibition % (Cavia porcellus [7]): 0%; Inhibition % (Cavia porcellus [9]): 100%; Inhibition % (Cavia porcellus [8]): 0%; Inhibition % (Cavia porcellus [4]): 100%
> 100 | – | COc1ccc(-c2nc(/N=C(\N)n3ccnc3)sc2-c2ccc(OC)cc2)cc1 | –
< 10 | < 100 | COc1ccc(-c2nc(C(=O)N3CCOCC3)sc2-c2ccc(OC)cc2)cc1 | Inhibition (Oryctolagus cuniculus [10]): 74.8%
> 1000 | 2.6 | CCOC(=O)CC(c1nc(-c2ccc(OC)cc2)c(-c2ccc(OC)cc2)s1)N1CCN(C)CC1 (stereo unspecified) | –
< 100 | 6 | COc1ccc(-c2nc(CNC(=O)CSC)sc2-c2ccc(OC)cc2)cc1 | inhibition in vivo at 1 mg/kg (Cavia porcellus [5]): -13.3%; inhibition in vivo at 1 mg/kg (Cavia porcellus [6]): -3.9%; Inhibition (Oryctolagus cuniculus [11]): 73.3%
39 | 5.2 | COc1ccc(-c2nc(N3CCN(C)CC3)sc2-c2ccc(OC)cc2)cc1 | inhibition in vivo at 1 mg/kg (Cavia porcellus [5]): 65.4%; inhibition in vivo at 1 mg/kg (Cavia porcellus [6]): 60.9%
> 1000 | – | COc1ccc(-c2nc(C(N)=O)sc2-c2ccc(OC)cc2)cc1 | –
> 1000 | 9.5 | COc1ccc(-c2nc(C(=O)N3CCNC(CCO)C3)sc2-c2ccc(OC)cc2)cc1 (stereo unspecified) | –
> 100 | 4.3 | COc1ccc(-c2nc(C(=O)N3CCCN(C)CC3)sc2-c2ccc(OC)cc2)cc1 | –
45 | 6.8 | COc1ccc(-c2nc(C(=O)N3CCCCC3CCO)sc2-c2ccc(OC)cc2)cc1 (stereo unspecified) | Inhibition % (Cavia porcellus [7]): 100%; Inhibition % (Cavia porcellus [8]): 100%
> 1000 | 20 | COc1ccc(-c2nc(/C=C/C(=O)N3CCN(C)CC3)sc2-c2ccc(OC)cc2)cc1 | –
5.6 | > 300 | COc1ccc(-c2nc(C(F)(F)F)sc2-c2ccc(OC)cc2)cc1 [ITAZIGREL] | Inhibition % (Cavia porcellus [5]): 79%; Inhibition % (Cavia porcellus [6]): 100%; Inhibition % (Cavia porcellus [12]): 100%; Ulcer index (Rattus norvegicus [13]): 1.4; Ulcer index (Rattus norvegicus [14]): 0.4; Inhibition % (Cavia porcellus [3]): 100%
42 | 5.7 | COc1ccc(-c2nc(CNC(=O)NC(C)C)sc2-c2ccc(OC)cc2)cc1 | inhibition in vivo at 1 mg/kg (Cavia porcellus [5]): 100%; inhibition in vivo at 3.2 mg/kg (Cavia porcellus [15]): 100%; inhibition in vivo at 1 mg/kg (Cavia porcellus [6]): 100%; inhibition in vivo at 3.2 mg/kg (Cavia porcellus [8]): 100%
31000 | 2 | COc1ccc(-c2nc(N=C(N)N)sc2-c2ccc(OC)cc2)cc1 | –
660 | 12 | COc1ccc(-c2nc(CNC(=O)N3CCOCC3)sc2-c2ccc(OC)cc2)cc1 | –

IC50 (Oryctolagus cuniculus [1]) [nM] | EC50 (Rattus norvegicus [2]) [µM] | Structure (SMILES) | further results
< 10 | 14 | CCN(CC)C(=O)c1nc(-c2ccc(OC)cc2)c(-c2ccc(OC)cc2)s1 | Inhibition (Oryctolagus cuniculus [10]): 65%
< 1000 | 66 | COc1ccc(-c2nc(/N=C(\N)N3CCOCC3)sc2-c2ccc(OC)cc2)cc1 | Inhibition (Oryctolagus cuniculus [16]): 79.9%
> 100 | 55 | COc1ccc(-c2nc(/C=C/C(=O)O)sc2-c2ccc(OC)cc2)cc1 | –
> 1000 | 8.7 | COc1ccc(-c2nc(C(=O)NCCN3CCOCC3)sc2-c2ccc(OC)cc2)cc1 | –
> 100 | – | CC/N=C(/N)Nc1nc(-c2ccc(OC)cc2)c(-c2ccc(OC)cc2)s1 | –
> 1000 | – | COc1ccc(-c2nc(C3=NNC(=O)CC3)sc2-c2ccc(OC)cc2)cc1 | –
< 10 | > 100 | CCOC(=O)/C(C#N)=C/c1nc(-c2ccc(OC)cc2)c(-c2ccc(OC)cc2)s1 | –
15 | 8.1 | COc1ccc(-c2nc(CNC(C)=O)sc2-c2ccc(OC)cc2)cc1 | Inhibition % (Cavia porcellus [5]): 26.6%; Inhibition % (Cavia porcellus [6]): 60.9%
20 | > 100 | CCOC(=O)/C=C/c1nc(-c2ccc(OC)cc2)c(-c2ccc(OC)cc2)s1 | –
< 100 | 20 | COc1ccc(-c2nc(C(=O)NCCc3cccnc3)sc2-c2ccc(OC)cc2)cc1 | Inhibition (Oryctolagus cuniculus [11]): 56.6%
> 100 | > 100 | COc1ccc(-c2nc(C(=O)N=C(N)N)sc2-c2ccc(OC)cc2)cc1 | –
< 100 | – | COc1ccc(-c2nc(C(=O)N(C)C)sc2-c2ccc(OC)cc2)cc1 | inhibition in vivo at 3.2 mg/kg (Cavia porcellus [7]): 89%; inhibition in vivo at 3.2 mg/kg (Cavia porcellus [8]): 4.1%; Inhibition (Oryctolagus cuniculus [11]): 51.4%
16000 | > 600 | CC(=O)Oc1ccccc1C(=O)O [ASPIRIN] | ED50 (Rattus norvegicus [17]): 8.4 mg/kg; Ulcer index (Rattus norvegicus [18]): 2.2; Ulcer index (Rattus norvegicus [19]): 3.8; Ulcer index (Rattus norvegicus [20]): 2; Ulcer index (Rattus norvegicus [21]): 0.6; Inhibition % (Cavia porcellus [9]): 9%; Inhibition % (Cavia porcellus [4]): 64%
88 | – | COc1ccc(-c2nc(C(=O)N3CCN(C)CC3)sc2-c2ccc(OC)cc2)cc1 [FR-122047] | inhibition in vivo at 1 mg/kg (Cavia porcellus [5]): 83.1%; inhibition in vivo at 1 mg/kg (Cavia porcellus [22]): 100%; Ulcer index (Rattus norvegicus [18]): 0; ED50 (Rattus norvegicus [23]): 1.4 mg/kg; inhibition in vivo at 3.2 mg/kg (Cavia porcellus [7]): 100%; inhibition in vivo at 3.2 mg/kg (Cavia porcellus [8]): 100%
22 | 15 | CNC(=O)NCc1nc(-c2ccc(OC)cc2)c(-c2ccc(OC)cc2)s1 | –
37 | – | COc1ccc(-c2nc(/N=C(\N)N(C)C)sc2-c2ccc(OC)cc2)cc1 | Inhibition % (Cavia porcellus [12]): 33.1%; Inhibition % (Cavia porcellus [3]): 48.5%; Inhibition % (Cavia porcellus [7]): 100%; Inhibition % (Cavia porcellus [9]): 100%; Inhibition % (Cavia porcellus [8]): 98%; Inhibition % (Cavia porcellus [4]): 100%
< 100 | > 100 | COc1ccc(-c2nc(CCC(=O)O)sc2-c2ccc(OC)cc2)cc1 | –
970 | – | C/N=C(/NC)Nc1nc(-c2ccc(OC)cc2)c(-c2ccc(OC)cc2)s1 | –
62 | 1.2 | CNC(=N)Nc1nc(-c2ccc(OC)cc2)c(-c2ccc(OC)cc2)s1 | Inhibition % (Cavia porcellus [12]): 9%; Inhibition % (Cavia porcellus [24]): 100%; Inhibition % (Cavia porcellus [9]): 76.2%; Inhibition % (Cavia porcellus [25]): 100%
< 100 | 4.2 | COc1ccc(-c2nc(CNC(=O)CSc3ccccc3)sc2-c2ccc(OC)cc2)cc1 | inhibition in vivo at 1 mg/kg (Cavia porcellus [5]): -2.6%; inhibition in vivo at 1 mg/kg (Cavia porcellus [6]): 16.5%; Inhibition (Oryctolagus cuniculus [11]): 73.6%
> 1000 | > 100 | COc1ccc(-c2nc(/N=C(\N)NC3CCCCC3)sc2-c2ccc(OC)cc2)cc1 | –
25 | – | COc1ccc(-c2nc(CNC(=O)c3cccnc3)sc2-c2ccc(OC)cc2)cc1 | Inhibition % (Cavia porcellus [7]): 40.3%; Inhibition % (Cavia porcellus [8]): 37.4%

Structure (SMILES) | IC50 (Oryctolagus cuniculus [1]) [nM] | EC50 (Rattus norvegicus [2]) [µM] | further results
COc1ccc(-c2nc(C3=CCN(C)CC3)sc2-c2ccc(OC)cc2)cc1 | < 10 | 5.9 | inhibition in vivo at 3.2 mg/kg (Cavia porcellus [7]): 100%; inhibition in vivo at 3.2 mg/kg (Cavia porcellus [8]): 69.3%
